# In ChEMBL document CHEMBL5523738, “Lipid Trolling to Optimize A3 Adenosine Receptor-Positive Allosteric Modulators (PAMs)” (J Med Chem, 2024):
# The source made the active and inactive calls. The calls are words filed in the database; no cut-off is given here.
# Columns and labels:
# [1] = target: T1, Adenosine receptor A3 (Homo sapiens) (UniProt P0DMS8); test: Orthosteric antagonist activity at human A3 adenosine receptor transfected in HEK293 cell membranes assessed as inhibition of [125I]I-AB-MECA binding at equilibrium at 10 uM measured for 18 hrs by gamma counter method; settings: Membrane, filed as antagonist
# T1 sequence (whole entry): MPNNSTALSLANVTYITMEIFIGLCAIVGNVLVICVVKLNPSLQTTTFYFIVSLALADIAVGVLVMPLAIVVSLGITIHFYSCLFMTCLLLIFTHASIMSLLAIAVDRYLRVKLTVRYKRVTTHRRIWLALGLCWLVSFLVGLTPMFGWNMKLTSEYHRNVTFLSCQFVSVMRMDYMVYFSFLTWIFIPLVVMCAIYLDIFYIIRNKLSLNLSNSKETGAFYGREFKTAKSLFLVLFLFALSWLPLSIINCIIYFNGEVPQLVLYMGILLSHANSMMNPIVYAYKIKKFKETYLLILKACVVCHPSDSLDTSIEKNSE
# [2] = target: T1, Adenosine receptor A3 (Homo sapiens); test: (§1) Positive allosteric modulation of human A3 adenosine receptor transfected in HEK293 cell membranes assessed as slow down of [125I]I-AB-MECA dissociation rate at 10 uM preincubated with radioligand for 3 hrs followed by NECA and compound addition and measured after 60 mins by gamma counter method; settings: Membrane, filed as positive allosteric modulator
# [3] = target: T2, Adenosine receptor A3 (Mus musculus) (UniProt Q61618); test: Orthosteric antagonist activity at full length mouse A3 adenosine receptor transfected in HEK293 cell membranes assessed as inhibition of [125I]I-AB-MECA binding at equilibrium at 10 uM by gamma counter method; settings: Membrane, filed as antagonist
# T2 sequence (whole entry): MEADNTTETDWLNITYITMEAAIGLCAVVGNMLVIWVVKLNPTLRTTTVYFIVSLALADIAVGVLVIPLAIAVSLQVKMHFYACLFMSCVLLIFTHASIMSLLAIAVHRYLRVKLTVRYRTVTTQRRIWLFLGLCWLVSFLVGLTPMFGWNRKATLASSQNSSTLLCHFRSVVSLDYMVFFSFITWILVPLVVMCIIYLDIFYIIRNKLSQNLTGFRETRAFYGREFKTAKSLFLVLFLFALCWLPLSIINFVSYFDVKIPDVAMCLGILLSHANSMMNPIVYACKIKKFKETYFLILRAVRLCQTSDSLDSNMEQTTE
# [4] = target: T2, Adenosine receptor A3 (Mus musculus); test: as §1, with “full length mouse” for “human”, “upto 180” for “after 60”; settings: Membrane, filed as positive allosteric modulator
# [5] = target: T1, Adenosine receptor A3 (Homo sapiens); test: Positive allosteric modulation of human A3 adenosine receptor transfected in HEK293 cell membranes assessed as potentiation of 5-(2-chloro-6-((3-iodobenzyl)amino)-9H-purin-9-yl)-3,4-dihydroxy-N-methyltetrahydrofuran-2-carboxamide induced [35S]GTP-gammaS binding by measuring fold increase in agonist …; settings: Membrane, filed as positive allosteric modulator, dose 1.0 µM, time 3.0 hrs
Compound,Activity [1],Activity [2],fold change (FC) [5],other results
CCCC(CCC)c1nc2c(Oc3ccc(Cl)c(Cl)c3)nc3ccccc3c2[nH]1,Active,Active,–,–
CCCC(CCC)c1nc2c(Nc3ccc(C#CCCCCCCN)cc3)nc3ccccc3c2[nH]1,–,–,–,Activity [3]: Active; Activity [4]: Active
CCCC(CCC)c1nc2c(Nc3ccc(C#CCCCCCCCCCN4CCCCC4)cc3)nc3ccccc3c2[nH]1,–,–,4,–
CCCC(CCC)c1nc2c([nH]1)c(Nc1ccc(C#CCCCCCCCCCCN)cc1)nc1ccccc12,–,–,2.5,Activity [3]: Active; Activity [4]: Active
CCCC(CCC)c1nc2c(Nc3ccc(C#CCCCCCCCCN(C)C)cc3)nc3ccccc3c2[nH]1,–,–,4,–
OCCn1c(C2CCCCC2)nc2c(Nc3ccc(Cl)c(Cl)c3)nc3ccccc3c21,Active,–,–,–
CCCC(CCC)c1nc2c(Sc3ccc(Cl)c(Cl)c3)nc3ccccc3c2[nH]1,Active,Active,–,–
CCCC(CCC)c1nc2c(Nc3ccc(C#CCCCCCCCCCN4CCCC4)cc3)nc3ccccc3c2[nH]1,–,–,4,–
CCCC(CCC)c1nc2c(Oc3ccccc3)nc3ccccc3c2[nH]1,Active,Active,–,–
CCCC(CCC)c1nc2c(Nc3ccc(C#CCCCCCCCCNCCCCN)cc3)nc3ccccc3c2[nH]1,–,–,12,–
CCCC(CCC)c1nc2c(Nc3ccc(/C=C/CCCCCCCCN)cc3)nc3ccccc3c2[nH]1,–,–,2.5,–
Clc1ccc(Oc2nc3ccccc3c3[nH]c(C4CCCCC4)nc23)cc1Cl,Active,Active,–,–
CCCC(CCC)c1nc2c(Nc3ccc(I)cc3)nc3ccccc3c2[nH]1,–,–,–,Activity [4]: Active
CCCC(CCC)c1nc2c(Nc3cccc(C#CCCCCCCCCN)c3)nc3ccccc3c2[nH]1,–,–,–,Activity [4]: Active
Clc1ccc(Sc2nc3ccccc3c3[nH]c(C4CCCCC4)nc23)cc1Cl,Active,Active,–,–
